Several values for one entry are separate records, joined by “and”; a condition that tells them apart may be missing. Equal entries are not always repeated.
Experiment: CaMKII Cell-Based Activity: CaMKII activity in neonatal rat ventricular myocytes (NRVM) was measured by monitoring the phosphorylation level of phospholamban using high-content imaging. NRVMs were plated in a clear bottom 384-well plate in medium supplemented with 10% fetal bovine serum (FBS) and incubated at 37° C., 5% CO2 overnight. The medium was changed to a serum-free medium and compounds were dosed to the cells. The cells were incubated at 37° C., 5% CO2 for 4 hours and were then treated with 100 nM ATX-II (Alomone Labs) to activate CaMKII. 10 minutes after the addition of ATX-II, the cells were fixed with 4% formaldehyde followed by permeabilization with 0.1% triton X100. The fixed cells were stained with an anti-phospho-phospholamban primary antibody (Santa Cruz Biotechnology) and an Alexa488-labeled anti-rabbit IgG secondary antibody (Life Technologies Corporation) as well as Hoechst 33342 (Life Technologies Corporation). The cells were imaged using an ArrayScan VTI (Cellomics) and analyzed for cells containing a positive fluorescent signal at 485 nm, reported as % responder. The % responders were plotted against the compound concentration to determine the compounds EC50.

SMILES	EC50
O=C(NCC1CCCCN1)c1ccnc(-c2cnn3ccc(-c4ccccc4)nc23)c1 (centres undefined)	955 nM
CCN(CC)[C@@H](CO)CNC(=O)c1ccnc(-c2cnn3ccc(-c4ccccc4)nc23)c1	61.9 nM
CC(C)NC(CNC(=O)c1ccnc(-c2cnn3ccc(-c4ccccc4)nc23)c1)C(C)C (centres undefined)	152 nM
CCN(CC)[C@@H](C)CNC(=O)c1cc(NCCS(N)(=O)=O)nc(-c2cnn3ccc(-c4cccs4)nc23)c1	232 nM
CN(C)CCNC(=O)c1ccnc(-c2cnn3ccc(-c4ccccc4)nc23)c1	320 nM
Cc1cnc(-c2cnn3ccc(-c4ccccc4)nc23)cc1C(=O)N1CCCC[C@@H]1[C@@H](C)N	66.4 nM
O=C(c1ccnc(-c2cnn3ccc(-c4cccs4)nc23)c1)N1CC2CCC[C@@H](C1)NC2	54.3 nM
CCC(C)N[C@@H](C)CNC(=O)c1ccnc(-c2cnn3ccc(-c4ccccc4)nc23)c1 (some centres undefined)	25.3 nM
CCN(CC)[C@@H](C)CNC(=O)c1cc(NCC(=O)NC)nc(-c2cnn3ccc(-c4cccs4)nc23)c1	108 nM
O=C(NC[C@]1(CC2CC2)CCCN1)c1ccnc(-c2cnn3ccc(-c4cccs4)nc23)c1	66.9 nM
O=C(NCC1CCCCN1)c1ccnc(-c2cnn3ccc(-c4cccs4)nc23)c1 (centres undefined)	288 nM
CCN[C@@H](C)CNC(=O)c1ccnc(-c2cnn3ccc(-c4ccccc4)nc23)c1	56.1 nM
CCN(CC(F)F)[C@@H](C)CNC(=O)c1ccnc(-c2cnn3ccc(-c4cccs4)nc23)c1	197 nM
CC(CN)NC(=O)c1ccnc(-c2cnn3ccc(-c4ccccc4)nc23)c1 (centres undefined)	175 nM
CCN(CC)[C@@H](C)CNC(=O)c1cc(N[C@H](C)C(N)=O)nc(-c2cnn3ccc(-c4cccs4)nc23)c1	355 nM
CCN(CC)[C@@H](C)CNC(=O)c1cc(OCc2cccnc2)nc(-c2cnn3ccc(-c4cccs4)nc23)c1	56.1 nM
CCN(CC)[C@@H](C)CNC(=O)c1cc(-c2cnn3ccc(-c4cccs4)nc23)nc(N2CC[C@H]2C(=O)N2CC3CC3C2)c1 (some centres undefined)	33.9 nM
NC[C@H]1CCCCN1C(=O)c1cc(-c2cnn3ccc(-c4ccccc4)nc23)ncc1N	23.3 nM
CCN(CC)[C@@H](C)CNC(=O)c1cc(NC(=O)OC(C)C)nc(-c2cnn3ccc(-c4cccs4)nc23)c1	39.8 nM
CC[C@@]1(CNC(=O)c2ccnc(-c3cnn4ccc(-c5ccccc5)nc34)c2)CCCN1	279 nM
CCN(CC)[C@@H](C)CNC(=O)c1cncc(-c2cnn3ccc(-c4cccs4)nc23)c1	22 nM
CCN(CC)[C@@H](C)CNC(=O)c1cc(OCc2ccc[n+]([O-])c2)nc(-c2cnn3ccc(-c4cccs4)nc23)c1	68.5 nM
C[C@H](N)CNC(=O)c1ccnc(-c2cnn3ccc(-c4cccs4)nc23)c1	62.2 nM

SMILES	EC50
Nc1cc(C(=O)N2C3CCNCC2CC3)cc(-c2cnn3ccc(-c4ccccc4)nc23)n1 (centres undefined)	606 nM
CCN(CC)[C@@H](C)CNC(=O)c1cc(NS(=O)(=O)C(C)C)nc(-c2cnn3ccc(-c4cccs4)nc23)c1	115 nM
CCN(CC)[C@@H](C)CNC(=O)c1cc(-c2cnn3ccc(-c4ccns4)nc23)nc(N2CC[C@H]2C(=O)NC)c1	32.7 nM
COCCNc1cc(C(=O)N2CC3CCC(C2)NC3)cc(-c2cnn3ccc(-c4cccs4)nc23)n1 (centres undefined)	124 nM
CCN(CC)[C@@H](C)CNC(=O)c1cc(Nc2cn[nH]c2)nc(-c2cnn3ccc(-c4cccs4)nc23)c1	9.87 nM
CCN(CC)[C@@H](C)CNC(=O)c1cc(N[C@H](C)C(=O)NC)nc(-c2cnn3ccc(-c4cccs4)nc23)c1	147 nM
CCN(CC)[C@@H](C)CNC(=O)c1cc(-c2cnn3ccc(-c4cccs4)nc23)nc(N2CC[C@H]2C(=O)N2CC(C)(C)C2)c1	79 nM
C[C@@H](CNC(=O)c1ccnc(-c2cnn3ccc(-c4cccs4)nc23)c1)NCC(F)(F)F	717 nM
Cc1cc(C(=O)N2CCCC[C@@H]2CN)cc(-c2cnn3ccc(-c4ccccc4)nc23)n1	52.8 nM
COC1CN(c2cc(C(=O)N3CC[C@H](N)C3)cc(-c3cnn4ccc(-c5ccccc5)nc34)n2)C1	42.9 nM
CCN[C@@H](CO)CNC(=O)c1ccnc(-c2cnn3ccc(-c4ccccc4)nc23)c1	243 nM
CCNC(CC)CNC(=O)c1ccnc(-c2cnn3ccc(-c4ccccc4)nc23)c1 (centres undefined)	46.8 nM
CCN(CC)C(CNC(=O)c1ccnc(-c2cnn3ccc(-c4ccccc4)nc23)c1)C(C)C (centres undefined)	37.2 nM
CN(C)c1cc(C(=O)N2CCCC[C@@H]2CN)cc(-c2cnn3ccc(-c4ccccc4)nc23)n1	53.2 nM
CCN(CC)[C@@H](C)CNC(=O)c1cc(-c2cnn3ccc(-c4cccs4)nc23)nc(-c2cnn3ccc(-c4cccs4)nc23)c1	794 nM
C[C@H](N)[C@@H]1CCCCN1C(=O)c1ccnc(-c2cnn3ccc(-c4ccccc4)nc23)c1	45.6 nM
CCN[C@@H](C)CNC(=O)c1cc(-c2cnn3ccc(-c4ccccc4)nc23)nc(C(C)C)c1	19.5 nM
N[C@@H](CO)CNC(=O)c1ccnc(-c2cnn3ccc(-c4ccccc4)nc23)c1	334 nM
CC1(C)CNC1CNC(=O)c1ccnc(-c2cnn3ccc(-c4ccccc4)nc23)c1 (centres undefined)	166 nM
C[C@@H]1CNCCN1C(=O)c1ccnc(-c2cnn3ccc(-c4cccs4)nc23)c1	208 nM
CC[C@@H](CNC(=O)c1cc(-c2cnn3ccc(-c4cccs4)nc23)nc(N2CC[C@H]2C(=O)NC)c1)N(CC)CC (single isomer, unassigned)	37.8 nM
CC(C)N[C@@H](C)CNC(=O)c1ccnc(-c2cnn3ccc(-c4cccs4)nc23)c1	166 nM
C[C@@H](CNC(=O)c1ccnc(-c2cnn3ccc(-c4cccs4)nc23)c1)NCC(F)F	443 nM and 149 nM

The remaining lines, values ahead:

EC50	SMILES
815 nM	CCN(CC)[C@@H](C)CNC(=O)c1cc(-c2cnn3ccc(-c4cccs4)nc23)nc(N2CCC[C@@H]2C(=O)NC)c1
97.8 nM	CCNc1cc(C(=O)NC[C@H](C)N(CC)CC)cc(-c2cnn3ccc(-c4cccs4)nc23)n1
22.3 nM	CCN(CC)[C@@H](C)CNC(=O)c1cc(NCCC(C)(C)O)nc(-c2cnn3ccc(-c4cccs4)nc23)c1
18.2 nM	CCN(CC)[C@@H](C)CNC(=O)c1cc(-c2cnn3ccc(-c4cccs4)nc23)nc(N2CCC3(COC3)C2)c1
40.8 nM	CCN(CC)[C@@H](C)CNC(=O)c1cc(-c2cnn3ccc(-c4cccs4)nc23)nc(N(C)C)c1
25.7 nM	CCN(CC)[C@@H](C)CNC(=O)c1cc(-c2cnn3ccc(-c4cccs4)nc23)nc(N2CC(NS(=O)(=O)CC)C2)c1
9.07 nM	CCN(CC)[C@@H](C)CNC(=O)c1cc(-c2cnn3ccc(-c4cccs4)nc23)nc(N2CC(C#N)C2)c1
69.9 nM	CCN(CC)[C@@H](C)CNC(=O)c1cc(-c2cnn3ccc(-c4cccs4)nc23)nc(N2CC(NC)C2)c1
40.4 nM	CCN(CC)c1cc(C(=O)NC[C@H](C)N(CC)CC)cc(-c2cnn3ccc(-c4cccs4)nc23)n1
69.3 nM	CCN(CC)[C@@H](C)CNC(=O)c1cc(-c2cnn3ccc(-c4cccs4)nc23)nc(N2CC[C@H](C(=O)NC)C2)c1
16.2 nM	CCN(CC)[C@@H](C)CNC(=O)c1cc(-c2cnn3ccc(-c4cccs4)nc23)nc(N2CC[C@H]2C(=O)N2CC(F)C2)c1
27.5 nM	CCN(CC)[C@@H](C)CNC(=O)c1cc(-c2cnn3ccc(-c4cccs4)nc23)nc(N2CC[C@H]2C(=O)NCC(F)F)c1
59.7 nM	CCc1cc(C(=O)NC[C@H](C)N(CC)CC)cc(-c2cnn3ccc(-c4cccs4)nc23)n1
29.9 nM	CCN(CC)[C@@H](C)CNC(=O)c1cc(N[C@H]2CCOC2)nc(-c2cnn3ccc(-c4cccs4)nc23)c1
49.4 nM	CCN(CC)[C@@H](C)CNC(=O)c1cc(NCCCO)nc(-c2cnn3ccc(-c4cccs4)nc23)c1
53 nM	CCN(CC)[C@@H](C)CNC(=O)c1cc(-c2cnn3ccc(-c4cccs4)nc23)nc(N2CC[C@H]2C(=O)NCCF)c1
28.6 nM	CCN(CC)[C@@H](C)CNC(=O)c1cc(-c2cnn3ccc(-c4cccs4)nc23)nc(N2CC[C@H]2C(=O)N(C)OC)c1

EC50	SMILES
55.3 nM	CCN(CC)[C@@H](C)CNC(=O)c1cc(OCC2(C)COC2)nc(-c2cnn3ccc(-c4cccs4)nc23)c1
89.3 nM	CCN(CC)[C@@H](C)CNC(=O)c1cc(-c2cnn3ccc(-c4cccs4)nc23)nc(N2CC[C@H]2C(=O)O)c1
68.8 nM	CCN(CC)[C@@H](C)CNC(=O)c1cc(-c2cnn3ccc(-c4cccs4)nc23)nc(N2CC[C@@H](N)C2)c1
80.4 nM	CCN(CC)[C@@H](C)CNC(=O)c1cc(-c2cnn3ccc(-c4cccs4)nc23)nc(C(C)C)c1
9.45 nM	CCOC1CN(c2cc(C(=O)NC[C@H](C)N(CC)CC)cc(-c3cnn4ccc(-c5cccs5)nc34)n2)C1
10.5 nM	CCN(CC)[C@@H](C)CNC(=O)c1cc(N)nc(-c2cnn3ccc(-c4cccs4)nc23)c1
32 nM	CCN(CC)[C@@H](C)CNC(=O)c1cc(OCCOC)nc(-c2cnn3ccc(-c4cccs4)nc23)c1
36 nM	CCN(CC)[C@@H](C)CNC(=O)c1cc(-c2cnn3ccc(-c4cccs4)nc23)nc(N2CC[C@H]2C(N)=O)c1
10.7 nM	CCN(CC)[C@@H](C)CNC(=O)c1cc(-c2cnn3ccc(-c4cccs4)nc23)nc(N2CC[C@H]2C(=O)N(C)C)c1
28.4 nM	CCN(CC)[C@@H](C)CNC(=O)c1cc(-c2cnn3ccc(-c4cccs4)nc23)nc(N2CC(NC(C)=O)C2)c1
8.24 nM	CCN(CC)[C@@H](C)CNC(=O)c1cc(-c2cnn(C)c2)nc(-c2cnn3ccc(-c4cccs4)nc23)c1
139 nM	COC1CN(c2cc(C(=O)NC[C@H](C)N)cc(-c3cnn4ccc(-c5cccs5)nc34)n2)C1
43.5 nM	CCN(CC)[C@@H](C)CNC(=O)c1cc(-c2cnn3ccc(-c4cccs4)nc23)nc(N2CCO[C@H](CO)C2)c1
69.3 nM	CCN(CC)[C@@H](C)CNC(=O)c1cc(Cl)nc(-c2cnn3ccc(-c4cccs4)nc23)c1
34 nM	CCN(CC)[C@@H](C)CNC(=O)c1cc(N[C@@H](C)CO)nc(-c2cnn3ccc(-c4cccs4)nc23)c1
33.4 nM	CCN(CC)[C@@H](C)CNC(=O)c1cc(-c2cnn3ccc(-c4cccs4)nc23)nc(N2CC[C@H]2C(=O)NCC2CC2)c1

Reference: ChEMBL document CHEMBL5725801, “Fused heterocyclic compounds as CaM kinase inhibitors” (2018)
